In patent publication US6602882B1, “Quinoline derivatives and their use as antibacterial agents” (SmithKline Beecham p.l.c., priority 1998, dated 2003) one finds MIC data, which are given here for six compounds.

Converted amounts (≈) assume the structure as drawn. Where two headings read alike, the source gives them in different places.

Holding throughout (format): cell-based
In one assay the test system is S. aureus Oxford. Briefly: MIC against S. aureus Oxford. Here is the method:
(§1) The MIC (μg/ml) of compounds 1, 3 and 4 against various organisms was determined.

A further assay deals with S. aureus WCUH29. Kind of assay: MIC against S. aureus WCUH29. How it is done:
as §1

The next assay relates to E. faecalis I. Briefly: MIC against E. faecalis I. How it is done: as §1
Another assay relates to S. aureus Carter 37. Briefly: MIC against S. aureus Carter 37. Here is the method:
as §1

The subject of another assay is M. catarrhalis Ravasio. Briefly: MIC against M. catarrhalis Ravasio. How it is done:
as §1

Another assay concerns S. pneumoniae R6. Kind of assay: MIC against S. pneumoniae R6. Here is the method: as §1
Setting [1] is: Staphylococcus aureus, read-out: MIC.
Where [2] appears, read: Staphylococcus aureus, CARTER37, read-out: MIC.
Setting [3] is: Enterococcus faecalis, read-out: MIC.
The mark [4] stands for this setting: Streptococcus pneumoniae, read-out: MIC.

Take `CCCCCCCN1CC[C@H](NC(=O)Nc2ccnc3ccc(OC)cc23)[C@H](CO)C1.O=C(O)C(=O)O` (relative stereo) [Example 5, N-(cis-1-Heptyl-3-(R/S)-hydroxymethyl-4-(S/R)-piperidyl)-N′-(6-methoxyquinolin-4-yl)urea oxalate]: the MIC (in general, the lowest concentration found to suppress growth) against S. aureus Oxford stood at 1 mg/L; against S. aureus WCUH29 it was 1 mg/L; against E. faecalis I it was 4 mg/L.
`CCCCCCCN1CCC(OC(=O)Nc2ccnc3ccc(OC)cc23)CC1` [Example 3, 1-Heptyl-4-[N-(6-methoxyquinolin-4-yl)aminocarbonyloxy]piperidine]: the MIC with S. aureus Oxford (setting [1]) was determined as 8 mg/L (≈ 20 µM); with S. aureus WCUH29 (setting [1]), 4 mg/L (≈ 10 µM); in the assay with S. aureus Carter 37 (setting [2]) it was 8 mg/L (≈ 20 µM); with E. faecalis I (setting [3]) it was 8 mg/L (≈ 20 µM); in the assay on M. catarrhalis Ravasio (Moraxella catarrhalis, read-out: MIC) it was 16 mg/L (≈ 40 µM); in the assay on S. pneumoniae R6 (setting [4]), 4 mg/L (≈ 10 µM).
With `CCCCCCCN1CCC(NC(=O)Nc2ccnc3ccc(OC)nc23)CC1.O=C(O)C(=O)O` [Example 7], the MIC with S. aureus Oxford was found to be 1 mg/L; against S. aureus WCUH29, 1 mg/L; in the assay on E. faecalis I it was 8 mg/L.
Consider `CCCCCCCN1CC[C@H](NC(=O)Nc2ccnc3ccc(OC)nc23)[C@H](CO)C1.O=C(O)C(=O)O` (relative stereo) [Example 6, N-(cis-1-Heptyl-3-(R/S)-hydroxymethyl-4-(S/R)-piperidyl)-N′-(6-methoxy-[1,5]-naphthyridin-4-yl)urea Oxalate], for which the figures for the MIC in the assay with S. aureus Oxford, in the assay with S. aureus WCUH29 and in the assay on E. faecalis I were 0.5 mg/L, 1 mg/L and 8 mg/L, respectively.
Turning to `CCCCCCCN1CCC(NC(=O)Nc2ccnc3ccc(OC)cc23)CC1` [Example 4, 1-Heptyl-4-(6-methoxyquinolin4-yl)ureidopiperidine], the MIC was 16 mg/L (≈ 40.1 µM) in the assay on S. aureus Oxford (setting [1]); 8 mg/L (≈ 20.1 µM) in the assay with S. aureus WCUH29 (setting [1]); 16 mg/L (≈ 40.1 µM) in the assay on S. aureus Carter 37 (setting [2]); 8 mg/L (≈ 20.1 µM) in the assay with E. faecalis I (setting [3]); 2 mg/L (≈ 5.02 µM) in the assay on S. pneumoniae R6 (setting [4]).
For the compound `CCCCCC1CCC2CC(OC(=O)Nc3ccnc4ccc(OC)cc34)CCN2C1` (centres unmarked) [Example 1, 1-Aza-8-(ax)-[(6-methoxyquinolin-4-yl)-aminocarbonyloxy]-3-(ax)-n-pentyl-bicyclo[4,4,0]decane], the MIC worked out at 2 mg/L (≈ 4.7 µM) in the assay on S. aureus Oxford; 4 mg/L (≈ 9.4 µM) in the assay with S. aureus WCUH29; 8 mg/L (≈ 18.8 µM) with S. aureus Carter 37; 8 mg/L (≈ 18.8 µM) against E. faecalis I; 32 mg/L (≈ 75.2 µM) against M. catarrhalis Ravasio; 1 mg/L (≈ 2.35 µM) against S. pneumoniae R6.
